From patent US11071731B2, “Allosteric modulators of the mu opioid receptor” (Chiromics, LLC, priority 2017, dated 2021)
pEC50: −log10 of the molar value.

Experiments:
mu opioid receptor (MOR) [1] = target: T1, mu opioid receptor (MOR) (Homo sapiens, UniProt P35372); experiment: Hit Hunter cAMP signaling assay (adenylyl cyclase inhibition), PAM mode with EC20 endomorphin-1; assay type: cell-based; settings: for pEC50 / cAMP Max Resp.: adenylyl cyclase inhibition; for pEC50: read-out: cAMP EC50; for cAMP Max. Resp.: maximal response for adenylyl cyclase inhibition
mu opioid receptor (MOR) [2] = target: T1, mu opioid receptor (MOR); experiment: PathHunter β-arrestin recruitment assay, PAM mode with EC20 endomorphin-1; assay type: cell-based; settings: for β-arr Max. Resp.: maximal response for β-arrestin recruitment; for pEC50 / β-arrestin Max Response: β-arrestin recruitment
Description: The effects of MOR PAMs and MOR SAMs on receptor activity were assayed using the PathHunter enzyme complementation assay technology (DiscoveRx, CA). A description of the technology employed is as follows.
Beta-Arrestin Pathway: The PathHunter β-arrestin assay monitors the activation of a GPCR in a homogenous, non-imaging assay format using a technology developed by DiscoveRx called Enzyme Fragment Complementation (EFC) with beta-galactosidase (β-Gal) as the functional reporter. […] EA is fused to β-Arrestin and ED is fused to the GPCR of interest. When the GPCR is activated and β-arrestin is recruited to the receptor, ED and EA complementation occurs, restoring β-gal activity, which is measured using chemiluminescent PathHunter Detection Reagents.
In this manner an EC50 for each test compound, and percent maximal response for each test compound, were determined for both the β-arrestin and cAMP pathways. Though the pharmacological effects of a given signal bias can be hypothesized (Raehal et al. (2011) Pharmacol. Rev. 63:1001-1019), it is not possible to know with certainty which bias ratio will be most advantageous in a clinical setting. […] Kenakin 2015a, supra. The information associated with the compounds detailed herein is the first large data set available for the prediction of ligand bias for an MOR PAM.

[3] = activity switching by MOR PAMs, read-out: β-arrestin EC50

T1 sequence (P35372 whole entry): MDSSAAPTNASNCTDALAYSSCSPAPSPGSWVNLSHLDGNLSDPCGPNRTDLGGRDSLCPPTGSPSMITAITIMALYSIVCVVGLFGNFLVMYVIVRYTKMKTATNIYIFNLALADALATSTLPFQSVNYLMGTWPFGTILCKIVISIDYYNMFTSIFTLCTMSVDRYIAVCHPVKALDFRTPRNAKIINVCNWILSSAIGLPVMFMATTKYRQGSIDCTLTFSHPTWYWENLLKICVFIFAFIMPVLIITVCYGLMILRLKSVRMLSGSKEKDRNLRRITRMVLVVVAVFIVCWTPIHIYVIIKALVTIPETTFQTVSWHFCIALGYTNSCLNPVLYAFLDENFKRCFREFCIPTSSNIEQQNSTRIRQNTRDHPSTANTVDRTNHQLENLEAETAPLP

Row | SMILES | pEC50 (mu opioid receptor (MOR) [1]) | cAMP Max. Resp. (mu opioid receptor (MOR) [1]) | β-arr Max. Resp. (mu opioid receptor (MOR) [2]) | pEC50 (mu opioid receptor (MOR) [2]; read-out: β-arr. EC50) | cAMP Max Resp. (mu opioid receptor (MOR) [1]; activity switching by MOR PAMs) | pEC50 (mu opioid receptor (MOR) [1]; activity switching by MOR PAMs) | β-arrestin Max Response (mu opioid receptor (MOR) [2]; activity switching by MOR PAMs) | pEC50 (mu opioid receptor (MOR) [2]; [3])
1 | COc1ccc(C2COCCN2c2nc(Cl)ncc2F)cc1Br (racemic) [Compound 187] | < 5.68 | E (E represents a maximal response of 40-60%) | F (F represents a maximal response of > 60%) | < 5.68 |  |  |  | 
2 | Fc1cnc(Cl)nc1N1CCOCC1c1cccc(C(F)(F)F)c1 (racemic) [Compound 188] | 5.68 to 6.15 | E (E represents a maximal response of 40-60%) | F (F represents a maximal response of > 60%) | < 5.68 |  |  |  | 
3 | Fc1ccc(C2COCCN2c2nc(Cl)ncc2F)cc1Cl (racemic) [Compound 189] | 5.68 to 6.15 | F (F represents a maximal response of > 60%) | F (F represents a maximal response of > 60%) | 5.68 to 6.15 |  |  |  | 
4 | Fc1cc(C2COCCN2c2nc(Cl)ncc2F)cc(C(F)(F)F)c1 (racemic) [Compound 190] | > 6.15 | F (F represents a maximal response of > 60%) | F (F represents a maximal response of > 60%) | 5.68 to 6.15 |  |  |  | 
5 | Fc1ccc(Cl)cc1CN1CCOCC1c1cccc(C(F)(F)F)n1 (racemic) [Compound 191] | 5.68 to 6.15 | E (E represents a maximal response of 40-60%) | F (F represents a maximal response of > 60%) | 5.68 to 6.15 |  |  |  | 
6 | COc1ccc(C2COCCN2Cc2cc(Cl)ccc2F)cc1Br (racemic) [Compound 192] | < 5.68 | D (D represents a maximal response of < 40%) | F (F represents a maximal response of > 60%) | < 5.68 |  |  |  | 
7 | Fc1ccc(Cl)cc1CN1CCOCC1c1cccc(C(F)(F)F)c1 (racemic) [Compound 193] | < 5.68 | F (F represents a maximal response of > 60%) | F (F represents a maximal response of > 60%) | 5.68 to 6.15 |  |  |  | 
8 | Fc1ccc(C2COCCN2Cc2cc(Cl)ccc2F)cc1Cl (racemic) [Compound 194] | 5.68 to 6.15 | D (D represents a maximal response of < 40%) | F (F represents a maximal response of > 60%) | 5.68 to 6.15 |  |  |  | 
9 | Fc1cc(C2COCCN2Cc2cc(Cl)ccc2F)cc(C(F)(F)F)c1 (racemic) [Compound 195] | < 5.68 | D (D represents a maximal response of < 40%) | F (F represents a maximal response of > 60%) | 5.68 to 6.15 |  |  |  | 
10 | COc1ccc(C2COCCN2S(=O)(=O)c2ccc(Cl)cc2)cc1Br (racemic) [Compound 222] | 5.68 to 6.15 | D (D represents a maximal response of < 40%) | F (F represents a maximal response of > 60%) | < 5.68 |  |  |  | 
11 | CN1CCN(c2nc(Cl)ncc2F)C(c2cccc(C(F)(F)F)c2)C1 (racemic) [Compound 282] | 5.68 to 6.15 | D (D represents a maximal response of < 40%) | F (F represents a maximal response of > 60%) | 5.68 to 6.15 |  |  |  | 
12 | Fc1cc(C2CSCCN2c2nc(Cl)ncc2F)cc(C(F)(F)F)c1 (racemic) [Compound 301] | > 6.15 | E (E represents a maximal response of 40-60%) | F (F represents a maximal response of > 60%) | 5.68 to 6.15 |  |  |  | 
13 | O=S1(=O)CCN(c2nc(Cl)ncc2F)C(c2cc(F)cc(C(F)(F)F)c2)C1 (racemic) [Compound 303] | < 5.68 | E (E represents a maximal response of 40-60%) | D (D represents a maximal response of < 40%) | < 5.68 |  |  |  | 
14 | CN1CCN(c2nc(Cl)ncc2F)C(c2cc(F)cc(C(F)(F)F)c2)C1 (racemic) [Compound 305] | 5.68 to 6.15 | F (F represents a maximal response of > 60%) | F (F represents a maximal response of > 60%) | 5.68 to 6.15 |  |  |  | 
15 | CN(C)CC(=O)N1CCN(c2nc(Cl)ncc2F)C(c2cc(F)cc(C(F)(F)F)c2)C1 (racemic) [Compound 306] | < 5.68 | F (F represents a maximal response of > 60%) | D (D represents a maximal response of < 40%) | < 5.68 |  |  |  | 
16 | CC(C)(O)C(=O)N1CCN(c2nc(Cl)ncc2F)C(c2cc(F)cc(C(F)(F)F)c2)C1 (racemic) [Compound 307] | < 5.68 | F (F represents a maximal response of > 60%) | D (D represents a maximal response of < 40%) | < 5.68 |  |  |  | 
17 | CC(=O)N1CCN(c2nc(Cl)ncc2F)C(c2cc(F)cc(C(F)(F)F)c2)C1 (racemic) [Compound 308] | < 5.68 | F (F represents a maximal response of > 60%) | E (E represents a maximal response of 40-60%) | < 5.68 |  |  |  | 
18 | CS(=O)(=O)N1CCN(c2nc(Cl)ncc2F)C(c2cc(F)cc(C(F)(F)F)c2)C1 (racemic) [Compound 309] | < 5.68 | D (D represents a maximal response of < 40%) | E (E represents a maximal response of 40-60%) | < 5.68 |  |  |  | 
19 | O=S(=O)(c1ccc(Cl)cc1)N1CCCCC1c1cccc(OC(F)(F)F)n1 (racemic) [compound 48] | < 5.68 | E (E represents a maximal response of 40-60%) | F (F represents a maximal response of > 60%) | < 5.68 |  |  |  | 
20 | N#Cc1ccc(C2CCCCN2S(=O)(=O)c2ccc(Cl)cc2)cc1C(F)(F)F (racemic) [compound 49] | < 5.68 | F (F represents a maximal response of > 60%) | F (F represents a maximal response of > 60%) | < 5.68 |  |  |  | 
21 | O=S(=O)(c1ccc(Cl)cc1)N1CCCCC1c1cc(F)cc(C(F)(F)F)c1 (racemic) [compound 50] | 5.68 to 6.15 | D (D represents a maximal response of < 40%) | F (F represents a maximal response of > 60%) | < 5.68 |  |  |  | 
22 | COc1ccc(C2CCCCN2S(=O)(=O)c2ccc(Cl)cc2)cc1Cl (racemic) [compound 51] | 5.68 to 6.15 | F (F represents a maximal response of > 60%) | F (F represents a maximal response of > 60%) | < 5.68 |  |  |  | 
23 | O=S(=O)(c1ccc(Cl)cc1)N1CCCCC1c1ccc(F)c(Cl)c1 (racemic) [compound 52] | > 6.15 | F (F represents a maximal response of > 60%) | F (F represents a maximal response of > 60%) | > 6.15 |  |  |  | 
24 | O=S(=O)(c1ccc(Cl)cc1)N1CCCCC1c1ccc(F)nc1 (racemic) [compound 53] | < 5.68 | F (F represents a maximal response of > 60%) | F (F represents a maximal response of > 60%) | < 5.68 |  |  |  | 
25 | O=S(=O)(c1ccc(Cl)cc1)N1CCCCC1c1ccc(F)cn1 (racemic) [compound 54] | < 5.68 | E (E represents a maximal response of 40-60%) | F (F represents a maximal response of > 60%) | < 5.68 |  |  |  | 
26 | O=S(=O)(c1ccc(Cl)cc1)N1CCCCC1c1ccc(F)c(C(F)(F)F)c1 (racemic) [compound 55] | 5.68 to 6.15 | E (E represents a maximal response of 40-60%) | F (F represents a maximal response of > 60%) | < 5.68 | D (D represents a maximal response of < 40%) | < 5.68 | F (F represents a maximal response of >60%) | < 5.68
27 | O=S(=O)(c1ccc(Cl)cc1)N1CCCCC1c1ccnc(C(F)(F)F)c1 (racemic) [compound 57] | < 5.68 | E (E represents a maximal response of 40-60%) | F (F represents a maximal response of > 60%) | < 5.68 | E (E represents a maximal response of 40-60%) | < 5.68 | F (F represents a maximal response of >60%) | < 5.68
28 | N#Cc1cc(C2CCCCN2S(=O)(=O)c2ccc(Cl)cc2)ccc1F (racemic) [compound 58] | < 5.68 | D (D represents a maximal response of < 40%) | F (F represents a maximal response of > 60%) | < 5.68 |  |  |  | 
29 | O=S(=O)(c1ccc(Cl)cc1)N1CCCCC1c1ccnc(F)c1 (racemic) [compound 59] | < 5.68 | F (F represents a maximal response of > 60%) | F (F represents a maximal response of > 60%) | < 5.68 |  |  |  | 
30 | O=S(=O)(c1ccc(Cl)cc1)N1CCCCC1c1cccc(Cl)c1 (racemic) [compound 61] | < 5.68 | E (E represents a maximal response of 40-60%) | F (F represents a maximal response of > 60%) | < 5.68 |  |  |  | 
